Key:
[1] = tested on: Sprague Dawley rats; assay: maximum tolerated dose, single oral administration, rat; details: in vivo, po
Method: (§1) Rat and dog MTD studies were performed at Frontage Laboratories Inc following testing facility’s SOPs. All procedures described were reviewed and approved by the Institutional Animal Care and Use Committee (IACUC) at Frontage Laboratories Inc.
(§2) For rat MTD study, male and female Sprague Dawley rats (Rattus norvegicus) of 8.1~9.6 weeks of age were purchased from Charles River Laboratories, USA and maintained at standard food and water ad libitum in temperature-controlled room with 12 h on-off light cycle before the experiment. Animals were acclimated to the testing facility for at least 6 to 16 days prior to initiation of dosing. Animals received a single dose of 11o in 0.5% methyl cellulose via oral gavage starting from 150 mg/kg dose level (this initial dose level was selected based on available data and the estimated toxicity using EPA’s toxicity estimation software tool (TEST) version 4.2.1) in 10 mL/kg dose volume. Subsequent doses occurred 3 or 4 days following the previous dose and were increased based on findings from the previous dosing(s). The procedure continued until four dosing events occurred. Animals were observed once in the morning and once in the afternoon throughout the study for clinical observations. Body weights were measured on the day prior to dose administration. […]

[2] = as above; details: both sexes, in vivo, single oral administration, male and female Sprague Dawley rats
Method: as §1, §2

[3] = metabolic stability in cryopreserved mouse hepatocytes
Method: Metabolic stability of 11o was determined in cryopreserved hepatocytes from mice, rats, dogs, monkeys and human according to the SOPs of Frontage Laboratories Inc. Briefly, cryopreserved hepatocytes for pre-clinical animals and for human (BioIVT, Westbury, NY, USA) were thawed in a 37 °C water bath with gentle shaking until ice had almost melted. The suspensions were immediately transferred to a centrifuge tube (50 mL) containing pre-warmed thawing media at 37 °C with gentle handshaking to prevent the cells from settling. Cell suspensions were centrifuged at 50× g and 4 °C for 5 min. The supernatant was discarded and the pellets were resuspended in prewarmed incubation media (5 mL) at 37 °C. The percentage of viable cells in the suspension was determined by Trypan blue staining method to ensure viability of ≥70 %. […] The samples were centrifuged and aliquots of the supernatant were analyzed for parent compounds by LC/MS/MS using suitable multiple reaction monitoring (MRM) transitions. […] The disappearance of 11o and midazolam was monitored by LC/MS/MS (MRM) analysis of the hepatocyte extracts at each time point. The peak area ratio of the analyte to internal standard was obtained for each sample and the rate of disappearance of 11o was assessed by comparing the peak area ratios at various time points to the peak area ratio obtained at t = 0. The t1/2 is obtained (using the linear portion of semi-log plot of the area ratio vs. time) and the CLint values determined using well-stirred model.

[4] = tested on: MPTP-lesioned mouse model; assay: MPTP-lesioned mouse model of Parkinson's disease; format: in vivo, C57BL/6J mice
Text: In a subsequent study, we investigated the therapeutic efficacy of 11o in PD using an MPTP-lesioned mouse model. This MPTP-lesion mouse model is one of the most well-established PD models and causes an approximately 90% loss of striatal dopamine, as analyzed using HPLC 7 days after the administration of the last dose of MPTP [13].
Male C57BL/6J mice of 10 weeks of age were purchased from Charles River Laboratories (Charles River Laboratories, Freiburg, Germany) and maintained at QPS Austria. All procedures described were reviewed and approved by IACUC at QPS Austria. Animal studies conformed to the Austrial guidelines for the care and use of laboratory animals (Tierversuchsgesetz 2012-TVG 2012, BGB1. I Nr. 114/2012). […]
To test individual nest-building behavior, mice were housed individually in cages containing wood-chip bedding and one square of pressed cotton (‘nestlet’). […] The nestlet was introduced on the day before the evaluation of the nest status in about 2 to 3 h before the dark phase was initiated, and the nest-building behavior was evaluated on the following day of the experiment within 2~3 h after the light-phase start. […] Manipulation of the nestlet and the constitution of the built nest were assessed according to five-point scale as follows: 1. […]

[5] = CD-1, mouse, cryopreserved hepatocytes in suspension

Cc1cc(Cn2ncc3c(-c4cccc(C#N)c4F)nc(N)nc32)ccc1N [11o, 3-(6-Amino-1-(4-amino-3-methylbenzyl)-1H-pyrazolo[3,4-d]pyrimidin-4-yl)-2-fluorobenzonitrile]
body weight loss or mortality in rats [1]: no body weight loss or mortality observed
MTD [2]: > 1000 mg/kg
CLint scaled at 1 μM [3, 5]: 115 mL/min/kg
half-life at 1 μM [3, 5]: 1.18 h
hepatocyte CLint at 1 μM [3, 5]: 9.8 µL/min/1e6 cells
Intrinsic Clearance ([3]; mouse hepatocytes, 1 μM 11o): 0.00977 mL/min/10^6 Cells
nest-building activity ([4]; MPTP-lesioned mice, intranasal 1 and 10 mg/kg, difference not significant): partially restored the activity level to near sham level
rescue of striatal dopamine depletion caused by MPTP ([4]; once daily for 7 days, doses up to 10 mg/kg, data not shown): unable to rescue dopamine depletion

— publication PMC9394284, “Discovery of Novel Dual Adenosine A2A and A1 Receptor Antagonists with 1H-Pyrazolo[3,4-d]pyrimidin-6-amine Core Scaffold as Anti-Parkinson’s Disease Agents” (Pharmaceuticals, 2022)
